Patent publication US20170015626A1, “TWO-PHOTON-ABSORBING COMPOUND” (OTSUKA ELECTRONICS CO., LTD., priority 2014, published 2017)

System: Hek293 cells
Experiment: Fluorescence staining experiment on cells, observed by two-photon excitation fluorescence microscopy
Assay type: cell-based, Human
Conditions: for emission of a red fluorescence from the stained cells by two-photon excitation fluorescence microscopy: Hek293 cells stained at 1 μmol dm^−3 for 12 hours, band pass filter central wavelength 650 nm; for fluorescence staining of HeK293 cells: final concentration 1 μmol dm^−3, final DMSO 0.1% (v/v), incubated for 12 hours
Method: Human embryonic kidney cells, namely, Hek293 cells were used as model cells for staining. The Hek293 cells were cultured in Dulbecco's Modified Eagle's Medium (DMEM) containing 10% (v/v) fetal bovine serum and 1% (v/v) […] and streptomycin under conditions of 37° C. and 5% CO2.
For preparation of microscopic observation, Hek293 cells were subcultured on a 35-mm glass-based dish, to result in a cell density of 1×10^5 cells/dish. 24 hours after the subculture, adhesion of the cells to the dish was confirmed by microscopic observation. The medium was removed from the dish, and the resulting cells were then washed with a phosphate buffered saline (PBS) twice. 2 mL of DMEM medium not containing phenol red (final concentration of PY: 1 μmol dm^−3, final DMSO concentration: 0.1% (v/v)), to which 2 μL of dimethyl sulfoxide (DMSO) solution of the 1×10^−3 mol/dm^−3 naphthalene derivative (I), anthracene derivative (II) or pyrene derivative (III) had been added, was placed in the dish, and it was then incubated for 12 hours for staining. Immediately before microscopic observation, the medium containing the pigment was removed from the dish, and PBS was then used to wash the cells twice. After that, 2 mL of the DMEM medium not containing phenol red was added to the dish.
A two-photon excitation fluorescence microscope was produced using Optical Block (Hamamatsu Photonics K. K.). As a light source, Femtosecond titanium-sapphire laser (Mira900, Coherent) was used. A mirror unit equipped with a Galvano scanner for scanning a focal point, a short-pass dichroic mirror (FF750-SDi02-25×36, Semrock) having a cutoff wavelength at 750 nm, and a band pass filter (FF01-650/60-25, Semrock) having a central wavelength at 650 nm was inserted into the optical system. For detection of fluorescence, a photomultiplier tube (R928, Hamamatsu Photonics K. K.) was used, and DC was detected at an applied voltage of 1000 V, through a preamplifier (5 MHz)-equipped socket. USB-6251 BNC was used as DAQ, and Lab VIEW2011 (National Instruments) was used as a platform of the control program. As a sample stage, KZGO620-G was used, and as objective lens, infinity corrected objective lens with a magnification of 40 and NA of 1.15 was used.

Row | SMILES | emission of a red fluorescence from the stained cells by two-photon excitation fluorescence microscopy | fluorescence staining of HeK293 cells
1 | C[n+]1ccc(/C=C/c2ccc3cc(/C=C/c4cc[n+](C)cc4)ccc3c2)cc1 [naphthalene derivative (I)] | emission of a red fluorescence from the aforementioned cells was observed | could achieve the fluorescence staining of HeK293 cells
2 | C[n+]1ccc(/C=C/c2ccc3cc4cc(/C=C/c5cc[n+](C)cc5)ccc4cc3c2)cc1 [anthracene derivative (II)] | emission of a red fluorescence from the aforementioned cells was observed | could achieve the fluorescence staining of HeK293 cells
3 | CCCCc1cc(C=Cc2cc[n+](C)cc2)c2ccc3c(CCCC)cc(C=Cc4cc[n+](C)cc4)c4ccc1c2c43.[I-].[I-] [pyrene derivative (III)] | emission of a red fluorescence from the aforementioned cells was observed | could achieve the fluorescence staining of HeK293 cells
